Assay results published in patent publication US20210387966A1, “2-AMINO-N-HETEROARYL-NICOTINAMIDES AS NAV1.8 INHIBITORS” (Merck Sharp & Dohme Corp., priority 2018, published 2021).

Target: T1, human Nav1.8 channels (Homo sapiens, UniProt Q9Y5Y9)
T1 construct: expressed in transfected cells
Assay: Nav1.8 Qube automated patch-clamp assay
Type: cell-based
Settings: human Nav1.8 stably expressed in HEK 293 cells; whole-cell voltage clamp, room temperature; resting or inactivated state not specified; read-out: IC50 values (nM) for Examples in the Nav1.8 Qube Assay
Summary of the method: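 Whole-cell patch clamp at room temperature on HEK293 cells stably expressing human Nav1.8. A 1 Hz train of ten 20 ms pulses to 10 mV from −90 mV holding, with −67 mV repolarization, was applied; first- and tenth-pulse peak currents gave resting and inactivated-state IC50s by Hill fitting.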

T1 sequence (Q9Y5Y9 whole entry): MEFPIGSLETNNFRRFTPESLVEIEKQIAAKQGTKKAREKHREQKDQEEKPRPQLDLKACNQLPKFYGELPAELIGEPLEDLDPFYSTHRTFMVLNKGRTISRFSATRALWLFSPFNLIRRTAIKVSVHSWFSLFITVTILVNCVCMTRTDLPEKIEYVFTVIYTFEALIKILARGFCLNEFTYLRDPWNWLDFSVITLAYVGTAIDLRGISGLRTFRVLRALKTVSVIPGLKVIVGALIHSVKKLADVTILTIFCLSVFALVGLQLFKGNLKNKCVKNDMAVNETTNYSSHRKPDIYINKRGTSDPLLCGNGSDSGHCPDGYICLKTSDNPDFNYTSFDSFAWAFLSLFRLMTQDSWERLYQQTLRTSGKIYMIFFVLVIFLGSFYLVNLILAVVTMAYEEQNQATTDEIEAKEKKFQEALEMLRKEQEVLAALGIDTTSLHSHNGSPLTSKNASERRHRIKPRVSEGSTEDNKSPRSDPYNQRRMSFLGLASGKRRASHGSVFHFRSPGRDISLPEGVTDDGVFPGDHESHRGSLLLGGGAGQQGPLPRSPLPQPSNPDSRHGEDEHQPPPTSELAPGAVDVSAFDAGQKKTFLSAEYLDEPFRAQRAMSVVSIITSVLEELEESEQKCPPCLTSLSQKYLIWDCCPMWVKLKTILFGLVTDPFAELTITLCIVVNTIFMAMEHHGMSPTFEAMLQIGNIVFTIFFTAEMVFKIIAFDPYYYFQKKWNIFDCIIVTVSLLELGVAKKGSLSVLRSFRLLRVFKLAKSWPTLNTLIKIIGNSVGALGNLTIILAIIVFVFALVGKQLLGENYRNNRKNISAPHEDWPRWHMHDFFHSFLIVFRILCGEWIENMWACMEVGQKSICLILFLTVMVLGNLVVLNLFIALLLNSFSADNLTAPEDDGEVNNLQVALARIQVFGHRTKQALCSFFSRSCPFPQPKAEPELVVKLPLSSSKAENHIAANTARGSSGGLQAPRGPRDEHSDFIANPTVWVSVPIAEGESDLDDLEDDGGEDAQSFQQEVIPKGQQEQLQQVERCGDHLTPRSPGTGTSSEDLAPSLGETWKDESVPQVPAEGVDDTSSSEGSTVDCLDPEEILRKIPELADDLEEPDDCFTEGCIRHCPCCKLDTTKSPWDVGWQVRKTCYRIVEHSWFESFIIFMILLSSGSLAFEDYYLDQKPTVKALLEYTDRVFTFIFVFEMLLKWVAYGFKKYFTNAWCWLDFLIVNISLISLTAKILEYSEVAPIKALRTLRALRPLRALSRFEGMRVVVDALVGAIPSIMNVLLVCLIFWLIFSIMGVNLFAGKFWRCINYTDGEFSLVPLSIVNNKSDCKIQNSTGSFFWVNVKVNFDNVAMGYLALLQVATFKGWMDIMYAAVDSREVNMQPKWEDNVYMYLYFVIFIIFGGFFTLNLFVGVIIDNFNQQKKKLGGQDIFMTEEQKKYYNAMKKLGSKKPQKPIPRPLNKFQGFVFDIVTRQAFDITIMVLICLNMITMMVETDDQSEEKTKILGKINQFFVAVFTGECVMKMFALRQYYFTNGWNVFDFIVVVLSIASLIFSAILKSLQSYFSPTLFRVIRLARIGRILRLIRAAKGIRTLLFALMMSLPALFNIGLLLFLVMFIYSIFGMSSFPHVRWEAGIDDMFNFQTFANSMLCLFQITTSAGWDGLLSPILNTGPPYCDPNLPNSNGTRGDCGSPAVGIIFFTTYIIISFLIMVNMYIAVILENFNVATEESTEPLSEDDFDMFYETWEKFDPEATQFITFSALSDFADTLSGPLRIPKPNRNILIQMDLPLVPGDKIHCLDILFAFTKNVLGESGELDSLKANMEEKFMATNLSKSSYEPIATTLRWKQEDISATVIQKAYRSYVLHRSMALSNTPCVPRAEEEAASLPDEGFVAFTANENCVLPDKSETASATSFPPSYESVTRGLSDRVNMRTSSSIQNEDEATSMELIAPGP

In the case of `NS(=O)(=O)c1cc(NC(=O)c2cc(C#CC3CC3)c(C(F)(F)F)nc2N2CCC(F)(F)CC2)ccn1` [Example 44, 5-(cyclopropylethynyl)-2-(4,4-difluoropiperidin-1-yl)-N-(2-sulfamoylpyridin-4-yl)-6-(trifluoromethyl)nicotinamide], the IC50 is reported as 59 nM.

Compound `N#Cc1noc(NC(=O)c2cc(C(F)(F)F)cnc2N2CCCCCC2)n1` [Example 45, 2-(azepan-1-yl)-N-(3-cyano-1,2,4-oxadiazol-5-yl)-5-(trifluoromethyl)pyridine-3-carboxamide] has an IC50 of 1790 nM.

`NS(=O)(=O)c1cc(NC(=O)c2cc(C(F)(F)F)cnc2N2CCCC(Cl)(Cl)CC2)ccn1` [Example 51, 2-(4,4-Dichloroazepan-1-yl)-N-(2-sulfamoylpyridin-4-yl)-5-(trifluoromethyl)nicotinamide] showed an IC50 of 6.6 nM.

Work on `C[C@@H]1CN(c2ncc(C(F)(F)F)cc2C(=O)Nc2ccnc(S(N)(=O)=O)c2)C[C@H](C)C1(F)F` [Example 52, 2-[(3S,5R)-4,4-difluoro-3,5-dimethyl-1-piperidyl]-N-(2-sulfamoyl-4-pyridyl)-5-(trifluoromethyl)pyridin-3-carboxamide] yielded an IC50 of 2.8 nM.

`NS(=O)(=O)c1cc(NC(=O)c2cc(C(F)(F)F)cnc2N2C[C@@H]3[C@H](C2)C(F)(F)C3(F)F)ccn1` [Example 60, N-(2-sulfamoylpyridin-4-yl)-2-((1R,5S)-6,6,7,7-tetrafluoro-3-azabicyclo[3.2.0]heptan-3-yl)-5-(trifluoromethyl)nicotinamide] showed an IC50 of 14 nM.

Work on `NS(=O)(=O)c1cc(NC(=O)c2cc(C(F)(F)F)cnc2N2C[C@H]3CC[C@@H](C2)C3(F)F)ccn1` [Example 63, 2-((1R,5S)-8,8-difluoro-3-azabicyclo[3.2.1]octan-3-yl)-N-(2-sulfamoylpyridin-4-yl)-5-(trifluoromethyl)nicotinamide] yielded an IC50 of 20 nM.

With `NS(=O)(=O)c1cc(NC(=O)c2cc(C(F)(F)F)cnc2N2C[C@H]3CC[C@H]3C2)ccn1` [Example 68, 2-((1R,5S)-3-azabicyclo[3.2.0]heptan-3-yl)-N-(2-sulfamoylpyridin-4-yl)-5-(trifluoromethyl)nicotinamide] the IC50 was 29 nM.

Work on `C[C@@H]1CN(c2ncc(C(F)(F)F)cc2C(=O)Nc2ccnc(S(N)(=O)=O)c2)C[C@H](C)[C@]1(C)O` [Example 75, 2-((3R,4s,5S)-4-hydroxy-3,4,5-trimethylpiperidin-1-yl)-N-(2-sulfamoylpyridin-4-yl)-5-(trifluoromethyl)nicotinamide] yielded an IC50 of 233 nM.

In the case of `NS(=O)(=O)c1cc(NC(=O)c2cc(C(F)(F)F)cnc2N2C[C@H]3C[C@@H](C2)C3(F)F)ccn1` [Example 76, 2-((1R,5S)-6,6-difluoro-3-azabicyclo[3.1.1]heptan-3-yl)-N-(2-sulfamoylpyridin-4-yl)-5-(trifluoromethyl)nicotinamide], the IC50 is reported as 389 nM.

`C[C@H]1CN(c2ncc(C(F)(F)F)cc2C(=O)Nc2ccnc(S(N)(=O)=O)c2)CC[C@@H]1O` [Example 77, 2-[(3S,4S)-4-hydroxy-3-methyl-1-piperidyl]-N-(2-sulfamoyl-4-pyridyl)-5-(trifluoromethyl)pyridine-3-carboxamide] was tested, and the IC50 was 2980 nM.

In the case of `CC1CN(c2ncc(C(F)(F)F)cc2C(=O)Nc2ccnc(S(N)(=O)=O)c2)CC(C)C1O` [Example 78, 2-[(3S,4r,5R)-4-hydroxy-3,5-dimethyl-1-piperidyl]-N-(2-sulfamoyl-4-pyridyl)-5-(trifluoromethyl)pyridine-3-carboxamide], the IC50 is reported as 5080 nM.

For `NS(=O)(=O)c1cc(NC(=O)c2cc(C(F)(F)F)cnc2N2CCc3sccc3C2)ccn1` [Example 79, 2-(6,7-dihydro-4H-thieno[3.2-c]pyridin-5-yl)-N-(2-sulfamoyl-4-pyridyl)-5-(trifluoromethyl)pyridin-3-carboxamide], the IC50 was 21 nM.

Compound `NS(=O)(=O)c1cc(NC(=O)c2cc(C(F)(F)F)cnc2N2CCCC(C(F)(F)F)C2)ccn1` (centres unmarked) [Example 80, N-(2-sulfamoyl-4-pyridyl)-5-(trifluoromethyl)-2-[3-(trifluoromethyl)-1-piperidyl]pyridine-3-carboxamide] has an IC50 of 31 nM.

Compound `NS(=O)(=O)c1cc(NC(=O)c2cc(C(F)(F)F)cnc2N2CCCC(c3cc(F)cc(F)c3)C2)ccn1` (centres unmarked) [Example 81, 2-[3-(3,5-difluorophenyl)-1-piperidyl]-N-(2-sulfamoyl-4-pyridyl)-5-(trifluoromethyl)pyridine-3-carboxamide] has an IC50 of 39 nM.

`NS(=O)(=O)c1cc(NC(=O)c2cc(C(F)(F)F)cnc2N2CCC(C(F)(F)F)CC2)ccn1` [Example 82, N-(2-sulfamoyl-4-pyridyl)-5-(trifluoromethyl)-2-[4-(trifluoromethyl)-1-piperidyl]pyridine-3-carboxamide] showed an IC50 of 54 nM.

`NS(=O)(=O)c1cc(NC(=O)c2cc(C(F)(F)F)cnc2N2CCCC(Cc3ccc(C(F)(F)F)cc3)C2)ccn1` (centres unmarked) [Example 83, N-(2-sulfamoyl-4-pyridyl)-5-(trifluoromethyl)-2-[3-[[4-(trifluoromethyl)phenyl]methyl]-1-piperidyl]pyridine-3-carboxamide] showed an IC50 of 114 nM.

`NS(=O)(=O)c1cc(NC(=O)c2cc(C(F)(F)F)cnc2N2CCSCC2)ccn1` [Example 84, N-(2-sulfamoyl-4-pyridyl)-2-thiomorpholino-5-(trifluoromethyl)pyridine-3-carboxamide] gave an IC50 of 147 nM.

Compound `NS(=O)(=O)c1cc(NC(=O)c2cc(C(F)(F)F)cnc2N2CCC(c3ccc(C(F)(F)F)cc3)C2)ccn1` (centres unmarked) [Example 85, N-(2-sulfamoyl-4 pyridyl)-5-(trifluoromethyl)-2-[3-[4-(trifluoromethyl)phenyl]pyrrolidin-1-yl]pyridine-3-carboxamide] has an IC50 of 152 nM.

With `NS(=O)(=O)c1cc(NC(=O)c2cc(C(F)(F)F)cnc2N2CCn3c(Cc4ccccc4)cnc3C2)ccn1` [Example 86, 2-(3-benzyl-6,8-dihydro-5H-imidazo[1,2-a]pyrazin-7-yl)-N-(2-sulfamoyl-4-pyridyl)-5-(trifluoromethyl)pyridine-3-carboxamide] the IC50 was 172 nM.

`CC1(C)CN(c2ncc(C(F)(F)F)cc2C(=O)Nc2ccnc(S(N)(=O)=O)c2)CCN1CC(F)(F)F` [Example 87, 2-[3,3-dimethyl-4-(2,2,2-trifluoroethyl)piperazin-1-yl]-N-(2-sulfamoyl-4-pyridyl)-5-(trifluoromethyl)pyridine-3-carboxamide] gave an IC50 of 223 nM.

Compound `CC1(C)CN(c2ncc(C(F)(F)F)cc2C(=O)Nc2ccnc(S(N)(=O)=O)c2)CCO1` [Example 88, 2-(2,2-dimethylmorpholin-4-yl)-N-(2-sulfamoyl-4-pyridyl)-5-(trifluoromethyl)pyridine-3-carboxamide] has an IC50 of 275 nM.

`NS(=O)(=O)c1cc(NC(=O)c2cc(C(F)(F)F)cnc2N2CCc3cccc(C(F)(F)F)c3C2)ccn1` [Example 89, N-(2-sulfamoyl-4-pyridyl)-5-(trifluoromethyl)-2-[8-(trifluoromethyl)-3,4-dihydro-1H-isoquinolin-2-yl]pyridine-3-carboxamide] gave an IC50 of 275 nM.

Compound `NS(=O)(=O)c1cc(NC(=O)c2cc(C(F)(F)F)cnc2N2Cc3cccc(OC(F)(F)F)c3C2)ccn1` [Example 90, N-(2-sulfamoyl-4-pyridyl)-2-[4-(trifluoromethoxy)isoindolin-2-yl]-5-(trifluoromethyl)pyridine-3-carboxamide] has an IC50 of 294 nM.

`NS(=O)(=O)c1cc(NC(=O)c2cc(C(F)(F)F)cnc2N2CCOC(c3ccc(C(F)(F)F)cc3)C2)ccn1` (centres unmarked) [Example 91, N-(2-sulfamoyl-4-pyridyl)-5-(trifluoromethyl)-2-[2-[4-(trifluoromethyl)phenyl]morpholin-4-yl]pyridine-3-carboxamide] showed an IC50 of 616 nM.

With `NS(=O)(=O)c1cc(NC(=O)c2cc(C(F)(F)F)cnc2N2CC(F)(F)C(F)(F)C2)ccn1` [Example 92, N-(2-sulfamoyl-4-pyridyl)-2-(3,3,4,4-tetrafluoropyrrolidin-1-yl)-5-(trifluoromethyl)pyridine-3-carboxamide] the IC50 was 659 nM.

`NS(=O)(=O)c1cc(NC(=O)c2cc(C(F)(F)F)cnc2N2CC(C(F)(F)F)C2)ccn1` [Example 93, N-(2-sulfamoyl-4-pyridyl)-5-(trifluoromethyl)-2-[3-(trifluoromethyl)azetidin-1-yl]pyridine-3-carboxamide] showed an IC50 of 707 nM.

`NS(=O)(=O)c1cc(NC(=O)c2cc(C(F)(F)F)cnc2N2CCC(n3cccn3)C2)ccn1` (centres unmarked) [Example 94, 2-(3-pyrazol-1-ylpyrrolidin-1-yl)-N-(2-sulfamoyl-4-pyridyl)-5-(trifluoromethyl)pyridine-3-carboxamide] was tested, and the IC50 was 745 nM.

Work on `NS(=O)(=O)c1cc(NC(=O)c2cc(C(F)(F)F)cnc2N2CCCCC2c2ccc(F)cc2)ccn1` (centres unmarked) [Example 95, 2-[2-(4-fluorophenyl)-1-piperidyl]-N-(2-sulfamoyl-4-pyridyl)-5-(trifluoromethyl)pyridine-3-carboxamide] yielded an IC50 of 1420 nM.

For `NS(=O)(=O)c1cc(NC(=O)c2cc(C(F)(F)F)cnc2N2CCC3OCCC32)ccn1` (centres unmarked) [Example 96, 2-(2,3,3,a,5,6,6a-hexahydrofuro[3,2-b]pyrrol-4-yl)-N-(2-sulfamoyl-4-pyridyl)-5-(trifluoromethyl)pyridine-3-carboxamide], the IC50 was 1620 nM.

Work on `NS(=O)(=O)c1cc(NC(=O)c2cc(C(F)(F)F)cnc2N2CC(Oc3ccc(C(F)(F)F)cc3)C2)ccn1` [Example 97, N-(2-sulfamoyl-4-pyridyl)-5-(trifluoromethyl)-2-[3-[4-(trifluoromethyl)phenoxy]azetidin-1-yl]pyridine-3-carboxamide] yielded an IC50 of 1900 nM.

`NS(=O)(=O)c1cc(NC(=O)c2cc(C(F)(F)F)cnc2N2CCC(Oc3cccc(C(F)(F)F)c3)CC2)ccn1` [Example 98, N-(2-sulfamoyl-4-pyridyl)-5-(trifluoromethyl)-2-[4-[3-(trifluoromethyl)phenoxy]-1-piperidyl]pyridine-3-carboxamide] gave an IC50 of 2370 nM.

`NS(=O)(=O)c1cc(NC(=O)c2cc(C(F)(F)F)cnc2N2CCN(CC3CC3)C(=O)C2)ccn1` [Example 99, 2-[4-(cyclopropylmethyl)-3-oxo-piperazin-1-yl]-N-(2-sulfamoyl-4-pyridyl)-5-(trifluoromethyl)pyridine-3-carboxamide] showed an IC50 of 2560 nM.
